Test results published in US6602881B2, “Anti-inflammatory uses of manzamines” (priority 1999, dated 2003).

Experiments:
Assay type in all cases: cell-based
[1] = tested on: LPS activated BMΦ (rat microglia); assay: Assay for BMΦ O2− generation (SOD-inhibitable reduction of ferricytochrome C), PMA-stimulated, LPS-activated BMΦ; details: PMA (1 μM)-stimulated O2− release from LPS (0.3 ng/ml, 17 h)-activated rat BMΦ, manzamine 20 min preincubation + 70 min
Procedure: (§1) Isolation and culture of rat BMΦ. Briefly to prepare primary BMΦ cultures, cerebral cortices from 1-2-day-old Sprague-Dawley rats (Harlan, Indianapolis, Ind.) were placed in cold DMEM+10% heat-inactivated FBS+120 U/ml P and 12 μg/ml S, meninges carefully removed, brain tissue minced and dissociated with trypsin-EDTA at 37° C. for 3-5 minutes. The mixed glial cell suspension was plated in either 75 or 162 cm^2 culture flasks with DMEM containing 10% heat-inactivated FBS+120 U/ml P and 12 μg/ml S and grown in a humidified 5% CO2 incubator at 37° C. On day 7 of culture, flasks were shaken (90 rpm, 20 min, 37° C.) and media exchanged. On day 14 and every 3-4 days thereafter, BMΦ were detached using an orbital shaker (200 rpm, 2 hours, 37° C., 5% CO2), then centrifuged (450×g, 25 min, 4° C.). The pellet containing BMΦ was resuspended gently with cold DMEM, cell number and viability assessed by trypan blue exclusion. Purified BMΦ obtained by our method averaged>than 95% viability. Microglia were characterized as previously described (Mayer et al., 1999, supra).
Assay for BMΦ O2^− generation. BMΦ O2^− generation was determined by the superoxide dismutase(SOD)-inhibitable reduction of ferricytochrome C(FCC) (Mayer et al., 1999, supra). Briefly, spontaneous O2^− release from unstimulated BMΦ was measured in the presence of FCC (50 μM) and HBSS with or without SOD (700 units). To determine PMA-stimulated O2^− release, BMΦ containing wells received FCC, HBSS and PMA [1 μM] with or without SOD which inhibited>95% of FCC reduction. All experimental treatments were run in triplicate and in a final volume of 1 ml. Changes in absorbance of BMΦ supernatants were measured at 550 nm using a Beckman DU-650 Spectrophotometer. Differences in the amount of reduced FCC in the presence or absence of SOD were used to determine BMΦ O2^− generation by employing the molecular extinction coefficient of 21.0×10^3 M^−1 cm^−1.
(§2) To establish the effect of Manzamine A, B, C, D, E and F on BMΦ O2^−, TXB2, and LDH generation the following procedure was used:
(§3) (1) 2-5×10^5 BMΦ were seeded into each well of 24-well flat-bottom culture clusters.
(§4) (2) 1 ml of DMEM+10% heat-inactivated FBS+120 U/ml P and 12 μg/ml S were added.
(§5) (3) BMΦ were allowed to attach for 2 hours, at 37° C., 5% CO2, and monolayers then washed 3 times with 1 ml warm (37° C.) DMEM+10% heat-inactivated FBS+120 U/ml P and 12 μg/ml S were added.
(§6) (4) 1 ml of DMEM+10% heat-inactivated FBS+120 U/ml P and 12 μg/ml S were added.
(§7) (5) Then, LPS (0.3 ng/ml final concentration) was added to each well.
(§8) (6) BMΦ were then incubated for 17 hours in a humidified 5% CO2 incubator at 37° C.
(§9) (7) Thereafter, the media was removed from each tissue culture well and discarded.
(§10) (8) BMΦ monolayers were washed 3 times with 1 ml warm (37° C.) HBSS.
(§11) To study the effect of Manzamines A, B, C, D, E and F on PMA-stimulated release of O2^− and TXB2 from BMΦ activated with LPS as described in (A) we proceeded as follows.
(§12) (1) Add HBSS, Manzamines A, or B, or C, or D, or E, or F, DMSO and Triton X-100 1% to the tissue culture wells containing LPS-activated BMΦ, as shown in Table 1.
(§13) (2) Incubate the tissue culture plates for 20 minutes in a humidified 5% CO2 incubator at 37° C.
(§14) (3) Remove the tissue culture plates from the incubator and return to laminar flow hood.
(§15) (4) Incubate tissue culture plates for an additional 70 minutes in CO2 incubator at 37° C.
(5) When incubation is complete, aspirate BMΦ supernates from each well (1 ml), and place in a 1.5 ml microcuvette. Proceed to reach absorbance as indicated above in Assay for BMΦ O2^− generation.

[2] = tested on: LPS activated BMΦ (rat microglia); assay: Assay for BMΦ thromboxane B2 (TXB2) generation (immunoassay), PMA-stimulated, LPS-activated BMΦ; details: PMA (1 μM)-stimulated TXB2 release from LPS (0.3 ng/ml, 17 h)-activated rat BMΦ, manzamine 20 min preincubation + 70 min
Procedure: as §1
Assay for BMΦ thromboxane B2 (TXB2) generation. Following stimulation with PMA, TXB2 generation in the BMΦ culture supernatants was measured using immunoassays (Cayman Chemical, Ann Arbor, Mich.) as indicated by the manufacturer's protocol (Mayer, et al., 1999, supra).
as §2, §3, §4, §5, §6, §7, §8, §9, §10, §11, §12, §13, §14, §15
(§16) (6) Once (5) is completed use the same BMΦ supernates to determine both LDH and TXB2 as described above in Assay for BMΦ TXB2 generation and LDH assay.

[3] = target: LPS activated BMΦ (rat microglia); assay: LDH assay (lactate dehydrogenase release, BMΦ viability); details: LDH release (toxicity) from LPS-activated rat BMΦ, same supernates
Procedure: as §1
LDH assay. To assess BMΦ viability following incubation with vehicle (DMSO) or the manzamines, lactate dehydrogenase (LDH) release was determined spectrophotometrically as previously described (Mayer et al., 1999, supra).
as §2, §3, §4, §5, §6, §7, §8, §9, §10, §11, §12, §13, §14, §15, §16

Work on `O[C@]12C=C(c3nccc4c3[nH]c3ccccc34)[C@@H]3CCN(CCCC/C=C\CC1)C[C@@]31C[C@@H]3/C=C\CCCCN3[C@H]12` [Manzamine A, manzamine A] yielded an IC50 [1] of 0.1 µM, an IC50 [2] of under 0.1 µM and an IC50 [3] of over 30 µM.

With `C1=C\CC[C@]23CN4CCCC/C=C\CC[C@@]5(OC5[C@@H](c5nccc6c5[nH]c5ccccc56)[C@@H]2CC4)[C@@H]3NCCCC/1` (some centres unmarked) [Manzamine B, manzamine B] the IC50 ([1]; Microglia) was about 5 µM, the IC50 ([2]; Microglia) was about 3 µM and the IC50 ([3]; Microglia) was about 3 µM.

`C1=C\CCCCN(CCc2nccc3c2[nH]c2ccccc23)CCCC/1` [Manzamine C, manzamine C] gave an IC50 ([1]; Microglia) of about 5 µM, an IC50 ([2]; Microglia) of about 5 µM and an IC50 ([3]; Microglia) of about 5 µM.

For `O[C@]12C=C(C3NCCc4c3[nH]c3ccccc43)[C@@H]3CCN(CCCC/C=C\CC1)C[C@@]31CC3/C=C\CCCCN3[C@H]12` (some centres unmarked) [Manzamine D, manzamine D], the IC50 ([1]; Microglia) was about 0.5 µM, the IC50 ([2]; Microglia) was about 0.3 µM and the IC50 ([3]; Microglia) was about 0.5 µM.

Compound `O=C1CCCN2C(CC1)C[C@]13CN4CCCC/C=C\CC[C@](O)(C=C(c5nccc6c5[nH]c5ccccc56)[C@@H]1CC4)[C@H]23` (some centres unmarked) [Manzamine E, manzamine E] has an IC50 ([1]; Microglia) of over 10 µM and an IC50 ([3]; Microglia) of over 10 µM.

For `O=C1CCCN2[C@@H](CC1)C[C@]13CN4CCCC/C=C\CC[C@](O)(C=C(c5nccc6c5[nH]c5c(O)cccc56)C1CC4)[C@H]23` (some centres unmarked) [Manzamine F, manzamine F], the IC50 ([1]; Microglia) was over 10 µM, the IC50 ([2]; Microglia) was over 10 µM and the IC50 ([3]; Microglia) was over 10 µM.
